In patent publication US8618133B2, “Aralkyl alcohol pyridine derivative compounds and the use thereof as medicaments for treating depression” (priority 2008, dated 2013):
Read-outs that look alike come from different tables or passages of the source.

Experiments:
[1] = molecular target: T1, reuptake of 5-serotonin (5-HT) by brain synaptosomes (Rattus norvegicus, UniProt P31652); experiment: [3H]5-HT reuptake by rat brain synaptosomes; assay type: biochemical; settings: for inhibiting activity on the reuptake of 5-HT (in words): concentration 10 μmol/L, effectiveness equivalent to venlafaxine and DOV21947; for Inhibition of reuptake of 5-HT: rat prefrontal cortex synaptosomes, 0.1 mmol/L for control drug and drug to be detected
T1 construct: taking prefrontal cortex for the [^3H]5-HT and [^3H]NA reuptake experiment; from tissue; host or cells: rat brain prefrontal cortex synaptosomes

[2] = molecular target: T2, reuptake of norepinephrine (NA) by brain synaptosomes (Rattus norvegicus, UniProt Q63380); experiment: [3H]NA reuptake by rat brain synaptosomes; assay type: biochemical; settings: for inhibiting activity on the reuptake of NA (in words): concentration 10 μmol/L, effectiveness equivalent to venlafaxine and DOV21947; for Inhibition of reuptake of NA / inhibition at 100 µM: rat prefrontal cortex synaptosomes, 0.1 mmol/L for control drug and drug to be detected
T2 construct: taking prefrontal cortex for the [^3H]5-HT and [^3H]NA reuptake experiment; from tissue; host or cells: rat brain prefrontal cortex synaptosomes

[3] = molecular target: T3, reuptake of dopamine (DA) by brain synaptosomes (Rattus norvegicus, UniProt P23977); experiment: [3H]DA reuptake by rat brain synaptosomes; assay type: biochemical; settings: for inhibiting activity on the reuptake of DA (in words): concentration 10 μmol/L, effectiveness equivalent to venlafaxine and DOV21947; for Inhibition of reuptake of DA / inhibition at 100 µM: rat striatum synaptosomes, 0.1 mmol/L for control drug and drug to be detected
T3 construct: taking striatum for the [^3H]DA reuptake experiment; from tissue; host or cells: rat brain striatum synaptosomes

[4] = system: Salmonella typhimurium histidine auxotroph mutant TA97, TA98, TA100 and TA102; assay type: cell-based
Description: Strains: Salmonella typhimurium histidine auxotroph mutant TA97, TA98, TA100 and TA102.
The experimental method: the method reported in Maron D M et al: (1983) Mutay Res. 113, 173-216 is used;
The experimental result: the experiment comprises two parts: −S9 and +S9.

mice [5] = experiment: Acute toxicity, single dosage LD50 to mice; assay type: in vivo; settings: Bliss statistics, preliminary screening
mice [6] = experiment: forced swimming test of mice (immobility); assay type: in vivo; settings: for Immobility time: mice, swimming test

T3 sequence (P23977 whole entry): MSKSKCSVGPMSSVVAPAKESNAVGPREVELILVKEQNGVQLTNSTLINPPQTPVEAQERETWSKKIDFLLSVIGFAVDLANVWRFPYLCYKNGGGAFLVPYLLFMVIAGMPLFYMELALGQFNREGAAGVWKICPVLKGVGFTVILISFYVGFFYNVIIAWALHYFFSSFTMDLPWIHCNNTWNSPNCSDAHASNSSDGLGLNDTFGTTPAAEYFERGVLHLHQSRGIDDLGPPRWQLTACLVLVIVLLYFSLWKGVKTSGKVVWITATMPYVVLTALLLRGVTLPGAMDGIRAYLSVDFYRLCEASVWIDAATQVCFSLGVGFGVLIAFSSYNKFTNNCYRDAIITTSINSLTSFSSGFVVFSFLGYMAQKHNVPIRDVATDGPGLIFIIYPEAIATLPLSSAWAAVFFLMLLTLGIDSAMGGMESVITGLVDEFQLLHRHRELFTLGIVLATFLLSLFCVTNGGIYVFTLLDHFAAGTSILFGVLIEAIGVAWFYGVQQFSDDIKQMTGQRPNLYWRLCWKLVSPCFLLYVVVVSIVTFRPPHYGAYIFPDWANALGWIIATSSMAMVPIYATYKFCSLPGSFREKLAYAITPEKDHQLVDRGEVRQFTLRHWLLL
T1 sequence (P31652 whole entry): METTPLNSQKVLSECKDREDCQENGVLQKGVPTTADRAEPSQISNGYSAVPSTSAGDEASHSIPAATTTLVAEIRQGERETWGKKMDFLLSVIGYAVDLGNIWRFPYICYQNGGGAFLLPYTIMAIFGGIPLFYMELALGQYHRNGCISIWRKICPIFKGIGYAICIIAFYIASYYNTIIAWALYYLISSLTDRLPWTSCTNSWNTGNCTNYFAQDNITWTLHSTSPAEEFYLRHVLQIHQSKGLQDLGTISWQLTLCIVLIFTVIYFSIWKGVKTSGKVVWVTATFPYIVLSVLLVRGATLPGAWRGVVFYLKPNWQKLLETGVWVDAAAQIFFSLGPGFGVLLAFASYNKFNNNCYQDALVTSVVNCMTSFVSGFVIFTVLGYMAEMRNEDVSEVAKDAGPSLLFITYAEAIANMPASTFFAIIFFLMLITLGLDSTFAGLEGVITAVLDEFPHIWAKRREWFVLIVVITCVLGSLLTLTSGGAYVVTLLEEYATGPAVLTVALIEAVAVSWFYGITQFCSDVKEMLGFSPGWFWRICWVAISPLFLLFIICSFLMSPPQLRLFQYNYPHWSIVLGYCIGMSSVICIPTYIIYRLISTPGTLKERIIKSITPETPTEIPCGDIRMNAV
T2 sequence (Q63380 1-617): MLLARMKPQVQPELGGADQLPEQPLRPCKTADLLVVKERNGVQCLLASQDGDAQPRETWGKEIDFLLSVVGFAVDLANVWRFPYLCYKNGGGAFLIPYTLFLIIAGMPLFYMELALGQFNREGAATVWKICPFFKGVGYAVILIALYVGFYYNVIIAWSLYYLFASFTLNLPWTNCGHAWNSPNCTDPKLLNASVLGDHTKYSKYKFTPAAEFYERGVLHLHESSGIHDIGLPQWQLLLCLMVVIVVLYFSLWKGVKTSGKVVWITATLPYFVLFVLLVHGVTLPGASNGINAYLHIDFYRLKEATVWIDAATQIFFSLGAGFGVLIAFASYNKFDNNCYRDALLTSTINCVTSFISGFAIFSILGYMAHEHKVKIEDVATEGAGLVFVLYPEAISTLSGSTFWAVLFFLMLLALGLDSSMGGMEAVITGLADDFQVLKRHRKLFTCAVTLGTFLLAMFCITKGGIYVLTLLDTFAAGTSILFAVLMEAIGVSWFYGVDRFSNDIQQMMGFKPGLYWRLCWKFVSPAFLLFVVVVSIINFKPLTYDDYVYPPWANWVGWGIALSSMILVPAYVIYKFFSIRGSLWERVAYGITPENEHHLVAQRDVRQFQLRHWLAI

| SMILES | inhibiting activity on the reuptake of 5-HT (in words) [1] | Inhibition of reuptake of 5-HT [1] | inhibiting activity on the reuptake of NA (in words) [2] | Inhibition of reuptake of NA [2] | inhibiting activity on the reuptake of DA (in words) [3] | Inhibition of reuptake of DA [3] | also measured |
| --- | --- | --- | --- | --- | --- | --- | --- |
| COc1ccc2cc([C@@H](O)[C@H](C)N3CCC(Cc4ccccc4)CC3)ccc2c1Cl [Compound V-2, Erythro-4-benzyl-N-[1-methyl-2-hydroxy-2-(5-chloro-6-methoxynaphthalene-2-yl)]ethylpiperidine] | stronger inhibiting activity | 105.6 ± 0.9 | stronger inhibiting activity | 65.3 ± 6.7 | stronger inhibiting activity | 93.1 ± 2.0 | – |
| COc1ccc2cc([C@@H](O)[C@H](C)N3CC=C(Cc4ccccc4)CC3)ccc2c1Cl [Compound V-40, Erythro-4-benzyl-N-[1-methyl-2-hydroxy-2-(5-chloro-6-methoxynaphthalene-2-yl)]ethyl-1,2,3,6-tetrahydropyridine] | – | 99.5 ± 1.6 | – | 62.6 ± 15.3 | – | 50.7 ± 21.8 | – |
| COc1ccc2cc([C@@H](O)[C@H](C)N3CCC(O)(Cc4ccccc4)CC3)ccc2c1Cl [Compound V-14, Erythro-4-benzyl-4-hydroxy-N-[1-methyl-2-hydroxy-2-(5-chloro-6-methoxynaphthalene-2-yl)]ethylpiperidine] | stronger inhibiting activity | 94.9 ± 1.2 | stronger inhibiting activity | 93.0 ± 20.8 | stronger inhibiting activity | 91.0 ± 0.9 | bacteriostatic effect ([4]; 5000 μg/dish, TA97, S9 added testing system): have bacteriostatic effect; bacteriostatic effect ([4]; 5000 μg/dish, non-S9 testing system): have bacteriostatic effect; Ames test, reverse mutation ([4]; all tested dosages, with or without S9): negative; bacteriostatic effect ([4]; other dosages, all strains): do nut have a bacteriostatic effect; LD50 (mice [5]): 1150 mg/kg; in vivo anti-depression activity (in words) (mice [6]; forced swimming test of mice, effect similar to venlafaxine): strong in vivo anti-depression activity; Immobility time (mice [6]; dosage 6.9 mg/kg): 52.8 ± 32.0 s; Immobility time (mice [6]; dosage 13.8 mg/kg): 82.1 ± 62.0 s; Immobility time (mice [6]; dosage 27.6 mg/kg): 74.9 ± 37.8 s |
| COc1ccc2cc(C(O)CCN3CCC(=Cc4ccccc4)CC3)ccc2c1Cl (centres unmarked) [Compound V-32, 4-benzyl-methylene-N-[3-hydroxy-3-(5-chloro-6-methoxynaphthalene-2-yl)]propylpiperidine] | stronger inhibiting activity | 104.4 ± 2.0 | stronger inhibiting activity | 36.6 ± 19.1 | stronger inhibiting activity | 92.4 ± 7.6 | – |
| COc1ccc(C(CN(C)C)C2(O)CCCCC2)cc1 (centres unmarked) [venlafaxine, reference compound] | – | – | – | – | – | – | Immobility time (mice [6]; dosage 4.56 mg/kg): 57.1 ± 37.8 s; Immobility time (mice [6]; dosage 9.12 mg/kg): 77.4 ± 47.2 s; Immobility time (mice [6]; dosage 18.24 mg/kg): 80.8 ± 46.8 s; inhibition at 100 µM [2]: 46.4 ± 4.6%; inhibition at 100 µM [3]: 48.6 ± 4.1% |
| COc1ccc2cc([C@@H](O)[C@H](C)N3CCC(OCc4ccccc4)CC3)ccc2c1Cl [Compound V-50, Erythro-4-benzyloxy-N-[1-methyl-2-hydroxy-2-(5-chloro-6-methoxynaphthalene-2-yl)]ethylpiperidine] | – | 91.8 ± 1.6 | – | 41.8 ± 7.3 | – | 23.1 ± 16.8 | – |
| COc1ccc2cc(C(O)C(C)N3CCC(=Cc4ccc(F)cc4)CC3)ccc2c1Cl (centres unmarked) [Compound V-34, 4-(4-fluorobenzyl)-methylene-N-[1-methyl-2-hydroxy-2-(5-chloro-6-methoxynaphthalene-2-yl)]ethyl-piperidine] | – | 106.3 ± 2.3 | – | 18.8 ± 13.4 | – | 99.1 ± 4.3 | – |
| COc1ccc2cc(C(O)C(C)N3CCC(=Cc4ccccc4)CC3)ccc2c1Cl (centres unmarked) [Compound V-38, 4-benzyl-methylene-N-[1-methyl-2-hydroxy-2-(5-chloro-6-methoxynaphthalene-2-yl)]ethyl-piperidine] | stronger inhibiting activity | 107.0 ± 0.5 | stronger inhibiting activity | 87.4 ± 5.5 | stronger inhibiting activity | 99.6 ± 2.9 | – |
| Clc1ccc([C@]23CNC[C@H]2C3)cc1Cl [DOV 21947, reference compound] | – | – | – | – | – | – | inhibition at 100 µM ([1]; read-out: Inhibition of reuptake of 5-HT): 109 ± 3.8%; inhibition at 100 µM [2]: 61.9 ± 6%; inhibition at 100 µM [3]: 104 ± 4.2% |
